Test results taken from the kinase profiling compilation of Christmann-Franck et al. (2016).
Values joined by “and” are separate entries in the source; they are usually repeats but may differ in a detail not shown here. Identical values can stand only once.

Columns and labels:
Assay in all cases: radiometric filter-binding kinase assay, Kinase HotSpot
Conditions in all cases: compound 0.5 µM; ATP 10 µM
PDGFRB (human) = PDGFRB (human) (UniProt P09619)
HIPK4 (human) = HIPK4 (human) (UniProt Q8NE63)
TNK2 (human) = TNK2 (human) (UniProt Q07912)
Chain of TNK2 (human) (Q07912 whole entry, looked up): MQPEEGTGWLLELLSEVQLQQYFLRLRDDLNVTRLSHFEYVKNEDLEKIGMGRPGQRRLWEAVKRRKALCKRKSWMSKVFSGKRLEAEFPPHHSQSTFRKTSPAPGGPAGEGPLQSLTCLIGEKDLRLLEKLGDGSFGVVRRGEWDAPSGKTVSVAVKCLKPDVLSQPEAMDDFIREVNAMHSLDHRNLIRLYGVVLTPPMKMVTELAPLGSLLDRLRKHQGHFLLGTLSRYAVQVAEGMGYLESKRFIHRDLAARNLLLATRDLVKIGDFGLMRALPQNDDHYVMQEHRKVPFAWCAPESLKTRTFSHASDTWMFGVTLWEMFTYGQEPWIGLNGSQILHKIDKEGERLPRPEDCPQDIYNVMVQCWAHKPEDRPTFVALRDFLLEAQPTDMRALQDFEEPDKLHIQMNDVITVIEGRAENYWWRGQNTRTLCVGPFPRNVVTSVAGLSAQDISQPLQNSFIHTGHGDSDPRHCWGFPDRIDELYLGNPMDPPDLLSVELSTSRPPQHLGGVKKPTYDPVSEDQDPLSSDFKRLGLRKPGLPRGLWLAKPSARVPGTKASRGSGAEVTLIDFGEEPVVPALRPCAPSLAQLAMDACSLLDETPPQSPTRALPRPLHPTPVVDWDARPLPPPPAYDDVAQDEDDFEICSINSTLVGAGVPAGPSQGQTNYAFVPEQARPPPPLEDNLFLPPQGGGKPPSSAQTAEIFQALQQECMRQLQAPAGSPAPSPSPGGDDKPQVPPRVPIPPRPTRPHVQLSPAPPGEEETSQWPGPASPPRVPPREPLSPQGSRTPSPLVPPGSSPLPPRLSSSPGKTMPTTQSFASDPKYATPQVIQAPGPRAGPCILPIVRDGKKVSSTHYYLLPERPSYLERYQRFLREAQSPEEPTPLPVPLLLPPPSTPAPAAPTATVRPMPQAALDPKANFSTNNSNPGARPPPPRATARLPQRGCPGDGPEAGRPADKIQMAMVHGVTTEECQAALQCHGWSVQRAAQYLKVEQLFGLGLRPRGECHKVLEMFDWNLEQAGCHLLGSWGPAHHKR

MYLK (human) = MYLK (human) (UniProt Q15746)
PKN1 (human) = PKN1 (human) (UniProt Q16512)
PRKG1 (human) = PRKG1 (human) (UniProt Q13976)
Chain of PRKG1 (human) (Q13976 whole entry, looked up): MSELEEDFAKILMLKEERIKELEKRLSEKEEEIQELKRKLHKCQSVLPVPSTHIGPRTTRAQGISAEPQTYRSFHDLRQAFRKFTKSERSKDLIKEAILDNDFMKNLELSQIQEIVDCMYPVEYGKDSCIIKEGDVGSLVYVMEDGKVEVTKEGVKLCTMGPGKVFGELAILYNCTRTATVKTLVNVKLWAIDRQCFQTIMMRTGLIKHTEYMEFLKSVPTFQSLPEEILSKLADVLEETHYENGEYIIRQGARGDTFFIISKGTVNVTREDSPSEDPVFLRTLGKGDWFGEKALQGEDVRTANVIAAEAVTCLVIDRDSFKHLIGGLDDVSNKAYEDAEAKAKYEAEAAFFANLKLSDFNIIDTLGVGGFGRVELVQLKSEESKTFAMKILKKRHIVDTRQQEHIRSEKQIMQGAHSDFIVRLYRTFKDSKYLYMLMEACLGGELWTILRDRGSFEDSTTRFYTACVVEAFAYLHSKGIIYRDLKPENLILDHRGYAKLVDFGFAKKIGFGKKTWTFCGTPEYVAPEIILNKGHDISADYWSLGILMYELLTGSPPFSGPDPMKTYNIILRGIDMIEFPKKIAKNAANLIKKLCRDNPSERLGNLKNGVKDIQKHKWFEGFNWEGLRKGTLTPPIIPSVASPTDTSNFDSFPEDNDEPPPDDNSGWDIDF

NEK6 (human) = NEK6 (human) (UniProt Q9HC98)
Chain of NEK6 (human) (Q9HC98 whole entry, looked up): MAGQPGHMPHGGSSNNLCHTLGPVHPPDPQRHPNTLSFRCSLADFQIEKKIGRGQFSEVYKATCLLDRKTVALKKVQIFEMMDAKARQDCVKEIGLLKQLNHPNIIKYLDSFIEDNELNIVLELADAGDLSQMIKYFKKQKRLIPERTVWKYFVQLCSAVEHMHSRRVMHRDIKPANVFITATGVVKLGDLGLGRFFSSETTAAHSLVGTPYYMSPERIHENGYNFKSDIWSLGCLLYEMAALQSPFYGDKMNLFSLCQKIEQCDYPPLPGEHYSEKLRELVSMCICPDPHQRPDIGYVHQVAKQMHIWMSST

CSNK1G2 (human) = CSNK1G2 (human) (UniProt P78368)
CHEK1 (human) = CHEK1 (human) (UniProt O14757)
MELK (human) = MELK (human) (UniProt Q14680)
LTK (human) = LTK (human) (UniProt P29376)
CDK4 CCND1 (human) = CDK4 CCND1 (human) (UniProt P24385+P11802)
HCK (human) = HCK (human) (UniProt P08631)
MATK (human) = MATK (human) (UniProt P42679)
PTK2 (human) = PTK2 (human) (UniProt Q05397)
MERTK (human) = MERTK (human) (UniProt Q12866)
MAP3K9 (human) = MAP3K9 (human) (UniProt P80192)
CLK1 (human) = CLK1 (human) (UniProt P49759)
ACVR1 (human) = ACVR1 (human) (UniProt Q04771)
MAP4K4 (human) = MAP4K4 (human) (UniProt O95819)
CHUK (human) = CHUK (human) (UniProt O15111)
BLK (human) = BLK (human) (UniProt P51451)
CAMK2D (human) = CAMK2D (human) (UniProt Q13557)
NLK (human) = NLK (human) (UniProt Q9UBE8)
FYN (human) = FYN (human) (UniProt P06241)
FGR (human) = FGR (human) (UniProt P09769)
CLK2 (human) = CLK2 (human) (UniProt P49760)
FES (human) = FES (human) (UniProt P07332)
RPS6KB1 (human) = RPS6KB1 (human) (UniProt P23443)
RPS6KA1 KD1 KD2 (human) = RPS6KA1 KD1 KD2 (human) (UniProt Q15418)
CDK3 CCNE1 (human) = CDK3 CCNE1 (human) (UniProt Q00526+P24864)
TEC (human) = TEC (human) (UniProt P42680)
WNK2 (human) = WNK2 (human) (UniProt Q9Y3S1)
Chain of WNK2 (human) (Q9Y3S1 whole entry, looked up): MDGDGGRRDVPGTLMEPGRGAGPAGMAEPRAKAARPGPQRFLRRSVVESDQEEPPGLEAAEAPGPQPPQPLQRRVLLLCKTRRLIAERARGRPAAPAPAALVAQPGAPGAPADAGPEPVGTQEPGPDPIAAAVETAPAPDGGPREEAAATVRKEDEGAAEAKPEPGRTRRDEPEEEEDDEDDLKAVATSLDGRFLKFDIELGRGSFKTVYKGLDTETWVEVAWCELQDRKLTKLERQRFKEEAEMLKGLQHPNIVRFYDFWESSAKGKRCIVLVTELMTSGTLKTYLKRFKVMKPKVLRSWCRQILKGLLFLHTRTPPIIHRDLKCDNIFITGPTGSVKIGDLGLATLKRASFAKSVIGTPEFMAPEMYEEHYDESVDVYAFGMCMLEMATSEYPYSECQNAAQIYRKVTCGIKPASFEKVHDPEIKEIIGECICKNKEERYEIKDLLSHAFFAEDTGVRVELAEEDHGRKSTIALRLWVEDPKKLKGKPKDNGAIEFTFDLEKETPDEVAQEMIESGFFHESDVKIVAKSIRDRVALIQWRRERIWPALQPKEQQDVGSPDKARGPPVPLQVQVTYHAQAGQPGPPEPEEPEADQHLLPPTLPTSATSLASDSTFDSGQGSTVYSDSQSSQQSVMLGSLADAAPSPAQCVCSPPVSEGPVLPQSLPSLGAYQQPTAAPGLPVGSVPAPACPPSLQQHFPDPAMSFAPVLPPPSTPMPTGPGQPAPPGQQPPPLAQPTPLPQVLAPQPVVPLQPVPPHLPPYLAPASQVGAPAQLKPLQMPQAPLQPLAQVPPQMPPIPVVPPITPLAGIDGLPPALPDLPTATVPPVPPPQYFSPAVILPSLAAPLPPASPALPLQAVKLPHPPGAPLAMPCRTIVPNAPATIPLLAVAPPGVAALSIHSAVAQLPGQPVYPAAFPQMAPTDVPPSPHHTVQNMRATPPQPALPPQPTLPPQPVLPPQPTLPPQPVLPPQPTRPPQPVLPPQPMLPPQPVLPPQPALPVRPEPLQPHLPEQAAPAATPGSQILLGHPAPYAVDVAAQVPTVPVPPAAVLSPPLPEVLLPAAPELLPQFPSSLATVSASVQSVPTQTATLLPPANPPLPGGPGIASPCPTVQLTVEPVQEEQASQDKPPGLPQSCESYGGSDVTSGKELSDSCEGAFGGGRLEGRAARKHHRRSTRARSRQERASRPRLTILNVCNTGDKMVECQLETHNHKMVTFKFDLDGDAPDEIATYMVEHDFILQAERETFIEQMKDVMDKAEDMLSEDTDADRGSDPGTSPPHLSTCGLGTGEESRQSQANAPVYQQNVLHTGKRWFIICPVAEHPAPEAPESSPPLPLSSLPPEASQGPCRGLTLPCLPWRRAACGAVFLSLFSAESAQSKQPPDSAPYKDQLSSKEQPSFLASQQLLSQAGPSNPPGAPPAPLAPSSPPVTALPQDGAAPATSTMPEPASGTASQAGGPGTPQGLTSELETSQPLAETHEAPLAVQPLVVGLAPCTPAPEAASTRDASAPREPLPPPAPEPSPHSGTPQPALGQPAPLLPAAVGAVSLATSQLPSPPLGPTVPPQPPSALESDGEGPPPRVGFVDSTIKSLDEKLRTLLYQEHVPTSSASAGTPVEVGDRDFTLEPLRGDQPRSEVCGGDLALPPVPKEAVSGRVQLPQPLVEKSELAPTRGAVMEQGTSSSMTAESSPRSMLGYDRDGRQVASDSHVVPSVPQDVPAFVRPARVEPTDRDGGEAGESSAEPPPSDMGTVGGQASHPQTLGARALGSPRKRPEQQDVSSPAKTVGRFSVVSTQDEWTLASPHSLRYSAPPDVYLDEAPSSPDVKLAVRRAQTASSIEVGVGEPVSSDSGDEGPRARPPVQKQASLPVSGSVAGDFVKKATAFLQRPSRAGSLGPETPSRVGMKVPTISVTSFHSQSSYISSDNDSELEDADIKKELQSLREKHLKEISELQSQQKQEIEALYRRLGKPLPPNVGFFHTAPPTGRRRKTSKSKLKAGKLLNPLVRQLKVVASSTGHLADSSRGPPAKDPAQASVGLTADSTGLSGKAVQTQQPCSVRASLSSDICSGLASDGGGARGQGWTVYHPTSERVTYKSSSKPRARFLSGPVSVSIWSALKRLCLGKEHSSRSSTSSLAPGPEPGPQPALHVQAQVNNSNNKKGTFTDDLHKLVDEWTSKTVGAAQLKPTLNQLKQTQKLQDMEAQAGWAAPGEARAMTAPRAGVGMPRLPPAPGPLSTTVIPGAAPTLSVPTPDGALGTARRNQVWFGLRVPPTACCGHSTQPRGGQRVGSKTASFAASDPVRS

EPHA3 (human) = EPHA3 (human) (UniProt P29320)
MAPK10 (human) = MAPK10 (human) (UniProt P53779)
CDK6 CCND1 (human) = CDK6 CCND1 (human) (UniProt Q00534+P24385)
RPS6KA6 KD1 KD2 (human) = RPS6KA6 KD1 KD2 (human) (UniProt Q9UK32)
PRKCA (human) = PRKCA (human) (UniProt P17252)
LCK (human) = LCK (human) (UniProt P06239)
ULK2 (human) = ULK2 (human) (UniProt Q8IYT8)
PRKCB2 (human) = PRKCB2 (human) (UniProt P05771)

Cn1sc(=O)n(Cc2ccccc2)c1=O
residual activity (PDGFRB (human)): 87.3%
residual activity (HIPK4 (human)): 98.2%
residual activity (TNK2 (human)): 101%
residual activity (MYLK (human)): 94.5%
residual activity (PKN1 (human)): 98.5%
residual activity (PRKG1 (human)): 93.2% and 95.9%
residual activity (NEK6 (human)): 102%
residual activity (CSNK1G2 (human)): 95%
residual activity (CHEK1 (human)): 103%
residual activity (MELK (human)): 99.3%
residual activity (LTK (human)): 101%
residual activity (CDK4 CCND1 (human)): 98.2%
residual activity (HCK (human)): 103%
residual activity (MATK (human)): 95.3%
residual activity (PTK2 (human)): 99.5%
residual activity (MERTK (human)): 92.8%
residual activity (MAP3K9 (human)): 99.4%
residual activity (CLK1 (human)): 112%
residual activity (ACVR1 (human)): 102%
residual activity (MAP4K4 (human)): 97%
residual activity (CHUK (human)): 96.2%
residual activity (BLK (human)): 101%
residual activity (CAMK2D (human)): 98.9%
residual activity (NLK (human)): 105%
residual activity (FYN (human)): 105%
residual activity (FGR (human)): 101%
residual activity (CLK2 (human)): 98.5%
residual activity (FES (human)): 101%
residual activity (RPS6KB1 (human)): 98%
residual activity (RPS6KA1 KD1 KD2 (human)): 97.6%
residual activity (CDK3 CCNE1 (human)): 78.1%
residual activity (TEC (human)): 117%
residual activity (WNK2 (human)): 99.1%
residual activity (EPHA3 (human)): 107%
residual activity (MAPK10 (human)): 91.1%
residual activity (CDK6 CCND1 (human)): 106%
residual activity (RPS6KA6 KD1 KD2 (human)): 104%
residual activity (PRKCA (human)): 71.8%
residual activity (LCK (human)): 103%
residual activity (ULK2 (human)): 105%
residual activity (PRKCB2 (human)): 111%

Nc1nccc(-c2c(-c3ccc(F)cc3)ncn2C2CCNCC2)n1
residual activity (PDGFRB (human)): 98.7%
residual activity (HIPK4 (human)): 96.6%
residual activity (TNK2 (human)): 98%
residual activity (MYLK (human)): 99.8%
residual activity (PKN1 (human)): 96.3%
residual activity (PRKG1 (human)): 88.2% and 97.7%
residual activity (NEK6 (human)): 104%
residual activity (CSNK1G2 (human)): 119%
residual activity (CHEK1 (human)): 99.8%
residual activity (MELK (human)): 100%
residual activity (LTK (human)): 97.3%
residual activity (CDK4 CCND1 (human)): 99.9%
residual activity (HCK (human)): 95.5%
residual activity (MATK (human)): 99.5%
residual activity (PTK2 (human)): 94.1%
residual activity (MERTK (human)): 98%
residual activity (MAP3K9 (human)): 94.5%
residual activity (CLK1 (human)): 98.2%
residual activity (ACVR1 (human)): 86.5%
residual activity (MAP4K4 (human)): 76.3%
residual activity (CHUK (human)): 101%
residual activity (BLK (human)): 102%
residual activity (CAMK2D (human)): 100%
residual activity (NLK (human)): 12.1%
residual activity (FYN (human)): 91.1%
residual activity (FGR (human)): 95.9%
residual activity (CLK2 (human)): 99.7%
residual activity (FES (human)): 103%
residual activity (RPS6KB1 (human)): 98.2%
residual activity (RPS6KA1 KD1 KD2 (human)): 96.7%
residual activity (CDK3 CCNE1 (human)): 95.5%
residual activity (TEC (human)): 110%
residual activity (WNK2 (human)): 93.1%
residual activity (EPHA3 (human)): 97.4%
residual activity (MAPK10 (human)): 105%
residual activity (CDK6 CCND1 (human)): 101%
residual activity (RPS6KA6 KD1 KD2 (human)): 109%
residual activity (PRKCA (human)): 89.1%
residual activity (LCK (human)): 80.1%
residual activity (ULK2 (human)): 113%
residual activity (PRKCB2 (human)): 79.4%
